The target of one experiment is JAK1 (Homo sapiens (Human), UniProt P23458). The experiment can be described thus: JAK1 enzyme activity assay (Thermo Fisher SelectScreen Z-lyte). In kind it is biochemical. Conditions: 1 hour kinase reaction, read-out: JAK1 Inhibition IC50. The essentials: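 Z-lyte FRET assay with 21.2-91.5 ng JAK1 and 2 μM Tyr 06 peptide in 50 mM HEPES pH 7.0 with 10 mM MgCl2, reacted 1 hour before development reagent. Compounds tested in an 11-point dose-response from […] to 0.34 nM. IC50 from 4-parameter logistic fit of emission ratio.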
Sequence of JAK1 (P23458 whole entry): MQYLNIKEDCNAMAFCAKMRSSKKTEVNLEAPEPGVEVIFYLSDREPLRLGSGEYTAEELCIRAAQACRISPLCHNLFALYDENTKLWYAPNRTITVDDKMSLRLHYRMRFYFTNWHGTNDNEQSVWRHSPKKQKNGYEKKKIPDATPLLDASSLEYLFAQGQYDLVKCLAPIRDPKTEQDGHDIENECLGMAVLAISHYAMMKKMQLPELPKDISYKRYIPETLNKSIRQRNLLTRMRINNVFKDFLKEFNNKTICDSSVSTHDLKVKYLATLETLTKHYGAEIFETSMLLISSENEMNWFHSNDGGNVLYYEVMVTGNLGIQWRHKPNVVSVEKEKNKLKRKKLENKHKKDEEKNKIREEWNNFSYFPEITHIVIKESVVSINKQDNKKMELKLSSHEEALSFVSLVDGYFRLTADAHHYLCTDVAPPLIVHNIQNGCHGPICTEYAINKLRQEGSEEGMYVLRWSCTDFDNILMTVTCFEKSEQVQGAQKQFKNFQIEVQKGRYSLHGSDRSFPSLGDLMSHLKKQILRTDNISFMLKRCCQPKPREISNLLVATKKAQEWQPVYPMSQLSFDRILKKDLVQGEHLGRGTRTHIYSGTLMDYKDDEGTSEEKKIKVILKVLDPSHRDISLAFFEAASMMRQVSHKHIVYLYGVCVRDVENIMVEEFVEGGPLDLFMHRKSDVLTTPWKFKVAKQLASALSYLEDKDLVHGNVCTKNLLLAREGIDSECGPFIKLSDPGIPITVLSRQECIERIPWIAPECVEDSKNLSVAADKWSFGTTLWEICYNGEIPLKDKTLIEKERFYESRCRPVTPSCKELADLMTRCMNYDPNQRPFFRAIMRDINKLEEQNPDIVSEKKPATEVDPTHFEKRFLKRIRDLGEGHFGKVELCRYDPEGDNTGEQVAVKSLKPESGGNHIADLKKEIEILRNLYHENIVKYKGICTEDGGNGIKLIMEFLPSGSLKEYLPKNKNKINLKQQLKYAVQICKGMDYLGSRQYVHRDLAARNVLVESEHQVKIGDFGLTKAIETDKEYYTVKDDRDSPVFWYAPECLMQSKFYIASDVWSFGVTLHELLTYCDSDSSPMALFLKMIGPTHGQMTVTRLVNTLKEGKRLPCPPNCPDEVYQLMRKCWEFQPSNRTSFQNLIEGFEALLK

The target of the next experiment is JAK3 (a.a. 781-1124) (Homo sapiens (Human), UniProt P52333). The experiment can be described thus: JAK3 enzyme activity assay (SRCtide phosphorylation, Caliper). In kind it is biochemical. The following applies: 2.5 nM JAK3, 1 μM SRCtide, 1 uM ATP, 40 minutes; read-out: JAK3 Inhibition IC50. In a few lines: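 2.5 nM JAK3 kinase domain with 1 μM FAM-SRCtide and 1 μM ATP in 20 mM HEPES pH 7.5, 10 mM MgCl2, 2% DMSO, 40 min at room temperature, EDTA stop. Phospho/unphospho peptide separated by mobility shift; 11-point 3-fold series in duplicate, 4-parameter logistic IC50.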
Sequence of JAK3 (a.a. 781-1124) (P52333 781-1124): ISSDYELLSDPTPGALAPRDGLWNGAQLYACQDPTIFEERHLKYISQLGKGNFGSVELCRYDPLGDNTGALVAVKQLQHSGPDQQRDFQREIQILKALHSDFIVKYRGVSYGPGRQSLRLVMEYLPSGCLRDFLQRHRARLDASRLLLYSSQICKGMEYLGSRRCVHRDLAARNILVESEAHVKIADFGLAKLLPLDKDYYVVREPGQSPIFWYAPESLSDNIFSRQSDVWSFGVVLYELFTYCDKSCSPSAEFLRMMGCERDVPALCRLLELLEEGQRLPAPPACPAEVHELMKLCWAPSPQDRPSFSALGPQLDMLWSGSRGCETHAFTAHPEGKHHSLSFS

Experiment [1] deals with IL-2 stimulated STAT5 phosphorylation on Tyr694 (JAK1/3). The experiment can be described thus: JAK1/3 cellular target modulation: IL-2 stimulated phospho-STAT5 in PBMC. The following applies: IL-2 25 ng/ml, 1 hour compound preincubation, read-out: IL2-STAT5 Inhibition IC50. The experiment is classed as cell-based. The essentials: (§1)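 Thawed human PBMC (200,000/well) in complete RPMI/10% FBS preincubated with compound 1 h at 37 °C, then stimulated with IL-2 25 ng/ml for 5 min (pSTAT5 Tyr694) or IFNγ 10 ng/ml for 10 min (pSTAT1 Tyr701). Cells lysed; pSTAT5 by MSD Tyr694/total STAT5a,b assay, pSTAT1 by sandwich ELISA.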

Experiment [2] relates to IFNγ stimulated STAT1 phosphorylation on Tyr701 (JAK1/2). The experiment can be described thus: JAK1/2 cellular target modulation: IFNγ stimulated phospho-STAT1 in PBMC. The experiment is classed as cell-based. Conditions: Homo sapiens, PBMC, IFNγ 10 ng/ml, 1 hour compound preincubation, read-out: Infγ-STAT1 IC50. In a few lines:
as §1

In patent US10981906B2, “Substituted pyrrolopyridine JAK inhibitors and methods of making and using the same” (ACLARIS THERAPEUTICS, INC., priority 2017, dated 2021) one finds IC50 data, which are given here for 15 molecules.

By pIC50 is commonly meant the IC50 on a negative log10 scale, so that one unit is a factor of ten.

pIC50: −log10 of the molar value. Like-named read-outs stand apart in the source and are kept apart here. Bounds are passed on as bounds.

Regarding `CCOC(=O)c1cnc2[nH]ccc2c1N(C)[C@H]1CC[C@H](OC(=O)CC#N)C1` (single isomer, unassigned) [Example 70, (trans)-ethyl 4-((3-(2-cyanoacetoxy)cyclopentyl)(methyl)amino)-1H-pyrrolo[2,3-b]pyridine-5-carboxylate], the negative-log IC50 (pIC50) on JAK1 is 7.00 to 8.00; on JAK3 (a.a. 781-1124) it was 6.00 to 7.00; in experiment [1] (human PBMC) it was 6.00 to 7.00; in experiment [2], less than 6.00.

`COC(=O)c1cnc2[nH]ccc2c1N[C@H]1CN(C(=O)CC#N)CC[C@H]1C` [Example 118, methyl 4-(((3R,4R)-1-(2-cyanoacetyl)-4-methylpiperidin-3-yl)amino)-1H-pyrrolo[2,3-b]pyridine-5-carboxylate]: the pIC50 on JAK1 is no less than 8.00; at JAK3 (a.a. 781-1124) it was 7.00 to 8.00; in experiment [1] (Homo sapiens, PBMC), no less than 7.00; in experiment [2] it was 6.00 to 7.00.

As for `CCOC(=O)c1cnc2[nH]ccc2c1N[C@@H]1CCC[C@H](CCC#N)C1` (single isomer, unassigned; enantiomer 2) [Example 136, (cis) ethyl 4-((3-(2-cyanoethyl)cyclohexyl)amino)-1H-pyrrolo[2,3-b]pyridine-5-carboxylate, enantiomer 2], the pIC50 at JAK1 was 7.00 to 8.00; at JAK3 (a.a. 781-1124) it was 7.00 to 8.00; in experiment [1] (Homo sapiens, PBMC), 6.00 to 7.00; in experiment [2] it was less than 6.00.

On to `CCOC(=O)c1cnc2[nH]ccc2c1N[C@@H]1CCCN(C(=O)C2(C#N)CC2)C1` [Example 128, ethyl (R)-4-((1-(1-cyanocyclopropane-1-carbonyl)piperidin-3-yl)amino)-1H-pyrrolo[2,3-b]pyridine-5-carboxylate], for which the pIC50 is 7.00 to 8.00 on JAK1; no less than 8.00 at JAK3 (a.a. 781-1124); no less than 7.00 in experiment [1] (Homo sapiens, PBMC); less than 6.00 in experiment [2].

In the case of `CCOC(=O)c1cnc2[nH]ccc2c1N[C@H]1CCC[C@H](CCC#N)C1` (single isomer, unassigned; enantiomer 2) [Example 138, (trans)-ethyl 4-((3-(2-cyanoethyl)cyclohexyl)amino)-1H-pyrrolo[2,3-b]pyridine-5-carboxylate, enantiomer 2], the pIC50 at JAK1 was 7.00 to 8.00; on JAK3 (a.a. 781-1124), no less than 8.00; in experiment [1] (Homo sapiens, PBMC), 6.00 to 7.00; in experiment [2], 6.00 to 7.00.

With `CCOC(=O)c1cnc2[nH]ccc2c1N[C@@H]1CCCN(C(=O)C(C)C#N)C1` (stereo partly drawn) [Example 129, ethyl 4-(((3R)-1-(2-cyanopropanoyl)piperidin-3-yl)amino)-1H-pyrrolo[2,3-b]pyridine-5-carboxylate], the pIC50 on JAK1 was no less than 8.00; at JAK3 (a.a. 781-1124), no less than 8.00; in experiment [1] (Homo sapiens, PBMC), no less than 7.00; in experiment [2], 6.00 to 7.00.

For the molecule `COCCOC(=O)c1cnc2[nH]ccc2c1N[C@@H]1CCCN(C(=O)CC#N)C1` [Example 131, 2-methoxyethyl (R)-4-((1-(2-cyanoacetyl)piperidin-3-yl)amino)-1H-pyrrolo[2,3-b]pyridine-5-carboxylate], the pIC50 was 7.00 to 8.00 at JAK1; 7.00 to 8.00 at JAK3 (a.a. 781-1124); 6.00 to 7.00 in experiment [1] (Homo sapiens, PBMC); 6.00 to 7.00 in experiment [2].

Take `COC(=O)c1cnc2[nH]ccc2c1N[C@@H]1CCC[C@H](CCC#N)C1` (racemic) [Example 152, cis-racemic-methyl 4-((3-(2-cyanoethyl)cyclohexyl)amino)-1H-pyrrolo[2,3-b]pyridine-5-carboxylate]: the pIC50 is no less than 8.00 at JAK1; no less than 8.00 at JAK3 (a.a. 781-1124); no less than 7.00 in experiment [1] (Homo sapiens, PBMC); 6.00 to 7.00 in experiment [2].

`CCOC(=O)c1cnc2[nH]ccc2c1NC1CCC(OCCC#N)C1` (stereo not drawn) [Example 113, ethyl 4-((3-(2-cyanoethoxy)cyclopentyl)amino)-1H-pyrrolo[2,3-b]pyridine-5-carboxylate]: the pIC50 on JAK1 was 7.00 to 8.00; at JAK3 (a.a. 781-1124) it was 7.00 to 8.00; in experiment [1] (Homo sapiens, PBMC) it was 6.00 to 7.00; in experiment [2] it was less than 6.00.

Regarding `CCOC(=O)c1cnc2[nH]ccc2c1NC1CCC(O)C(CC#N)C1` (stereo not drawn) [Example 142, ethyl 4-((3-(cyanomethyl)-4-hydroxycyclohexyl)amino)-1H-pyrrolo[2,3-b]pyridine-5-carboxylate], the pIC50 at JAK1 is no less than 8.00; at JAK3 (a.a. 781-1124), 7.00 to 8.00; in experiment [1] (Homo sapiens, PBMC), no less than 7.00; in experiment [2] it was 6.00 to 7.00.

With `CCOC(=O)c1cnc2[nH]ccc2c1N[C@@H]1CC[C@H](C)N(C(=O)CC#N)C1` [Example 146, ethyl 4-(((3R,6S)-1-(2-cyanoacetyl)-6-methylpiperidin-3-yl)amino)-1H-pyrrolo[2,3-b]pyridine-5-carboxylate], the negative-log IC50 (pIC50) at JAK1 is no less than 8.00; on JAK3 (a.a. 781-1124), no less than 8.00; in experiment [1] (Homo sapiens, PBMC), no less than 7.00; in experiment [2], no less than 7.00.

As for `CCOC(=O)c1cnc2[nH]ccc2c1N[C@@H]1CCCN(CCC#N)C1` [Example 123, ethyl (R)-4-((1-(2-cyanoethyl)piperidin-3-yl)amino)-1H-pyrrolo[2,3-b]pyridine-5-carboxylate], the pIC50 on JAK1 was no less than 8.00; at JAK3 (a.a. 781-1124) it was no less than 8.00; in experiment [1] (Homo sapiens, PBMC), no less than 7.00; in experiment [2] it was 6.00 to 7.00.

Consider `CCOC(=O)c1cnc2[nH]ccc2c1N[C@H]1CCC[C@H](CCC#N)C1` (racemic) [Example 134, (rac)-(trans)-Ethyl 4-((3-(2-cyanoethyl)cyclohexyl)amino)-1H-pyrrolo[2,3-b]pyridine-5-carboxylate], for which the pIC50 on JAK1 was no less than 8.00; at JAK3 (a.a. 781-1124), no less than 8.00; in experiment [1] (Homo sapiens, PBMC), no less than 7.00; in experiment [2], 6.00 to 7.00.

In the case of `CCCOC(=O)c1cnc2[nH]ccc2c1N[C@H]1CCC[C@H](CCC#N)C1` (racemic) [Example 140, (rac)-(trans)-propyl 4-((3-(2-cyanoethyl)cyclohexyl)amino)-1H-pyrrolo[2,3-b]pyridine-5-carboxylate], the negative-log IC50 (pIC50) at JAK1 was no less than 8.00; on JAK3 (a.a. 781-1124), no less than 8.00; in experiment [1] (Homo sapiens, PBMC), 6.00 to 7.00; in experiment [2], 6.00 to 7.00.

In the case of `CCCOC(=O)c1cnc2[nH]ccc2c1N[C@H]1CCC[C@@H](CCC#N)C1` (racemic) [Example 139, (rac) (cis) propyl 4-((3-(2-cyanoethyl)cyclohexyl)amino)-1H-pyrrolo[2,3-b]pyridine-5-carboxylate], the pIC50 at JAK1 is no less than 8.00; on JAK3 (a.a. 781-1124), no less than 8.00; in experiment [1] (Homo sapiens, PBMC), 6.00 to 7.00; in experiment [2] it was less than 6.00.
